Results published in ChEMBL document CHEMBL1146302, “Highly constrained bicyclic VLA-4 antagonists” (Bioorg Med Chem Lett, 2007).
Active and inactive are the calls of the source. No cut-off for these calls is given here.

Legend:
Integrin alpha-4/beta-1 [1] = biological target: T1, Integrin alpha-4/beta-1 (Homo sapiens, UniProt P05556+P13612); assay: Binding affinity to human VLA4 alpha4beta1 in Jurkat cells; type: cell-based
Integrin alpha-4/beta-1 [2] = biological target: T1, Integrin alpha-4/beta-1; assay: Displacement of [125I]VCAM-Ig from human VLA4 alpha-4-beta-1 in Jurkat cells at 100 uM; type: cell-based
[3] = Half life in Sprague-Dawley rat plasma at 2 mg/kg, po by cassette-dosing assay; type: ADME, organism-based; design: dose 2 mg/kg, route oral
[4] = Half life in Sprague-Dawley rat plasma at 1 mg/kg, iv by cassette-dosing assay; type: ADME, organism-based; design: dose 1 mg/kg, route intravenous
[5] = Bioavailability in Sprague-Dawley rat at 2 mg/kg, po by cassette-dosing assay; type: ADME, organism-based; settings: in vivo
Integrin alpha-4/beta-7 = biological target: T2, Integrin alpha-4/beta-7 (Homo sapiens, UniProt P13612+P26010); assay: Binding affinity to human integrin alpha-4-beta-7 in Jurkat cells; type: cell-based
T2 sequence (P13612 whole entry): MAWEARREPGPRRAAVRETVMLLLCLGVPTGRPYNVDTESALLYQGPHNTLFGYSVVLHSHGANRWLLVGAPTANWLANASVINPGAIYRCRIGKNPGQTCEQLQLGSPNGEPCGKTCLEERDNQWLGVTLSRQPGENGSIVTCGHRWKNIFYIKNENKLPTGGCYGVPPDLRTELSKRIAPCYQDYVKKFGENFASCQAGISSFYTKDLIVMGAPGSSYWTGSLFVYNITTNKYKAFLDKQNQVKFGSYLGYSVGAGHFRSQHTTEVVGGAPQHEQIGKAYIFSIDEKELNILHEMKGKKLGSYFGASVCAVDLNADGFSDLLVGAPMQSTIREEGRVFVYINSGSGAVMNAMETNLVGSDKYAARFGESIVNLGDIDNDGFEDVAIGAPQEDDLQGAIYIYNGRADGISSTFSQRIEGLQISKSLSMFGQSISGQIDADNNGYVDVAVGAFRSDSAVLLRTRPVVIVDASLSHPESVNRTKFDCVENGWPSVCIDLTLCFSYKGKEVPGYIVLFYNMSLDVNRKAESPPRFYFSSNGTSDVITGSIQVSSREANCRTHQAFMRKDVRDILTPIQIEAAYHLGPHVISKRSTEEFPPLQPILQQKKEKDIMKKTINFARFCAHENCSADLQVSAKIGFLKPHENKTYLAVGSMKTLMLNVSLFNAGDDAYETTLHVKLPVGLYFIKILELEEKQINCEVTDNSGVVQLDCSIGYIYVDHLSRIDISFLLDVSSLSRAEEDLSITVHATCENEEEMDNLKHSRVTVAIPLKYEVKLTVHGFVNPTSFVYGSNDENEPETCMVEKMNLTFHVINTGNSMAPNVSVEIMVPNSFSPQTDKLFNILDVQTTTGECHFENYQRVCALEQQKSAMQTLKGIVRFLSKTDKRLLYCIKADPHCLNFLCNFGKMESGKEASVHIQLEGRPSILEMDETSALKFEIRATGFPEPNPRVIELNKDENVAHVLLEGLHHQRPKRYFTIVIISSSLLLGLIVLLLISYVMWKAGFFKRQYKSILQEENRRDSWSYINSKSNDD
T2 sequence (P26010 whole entry): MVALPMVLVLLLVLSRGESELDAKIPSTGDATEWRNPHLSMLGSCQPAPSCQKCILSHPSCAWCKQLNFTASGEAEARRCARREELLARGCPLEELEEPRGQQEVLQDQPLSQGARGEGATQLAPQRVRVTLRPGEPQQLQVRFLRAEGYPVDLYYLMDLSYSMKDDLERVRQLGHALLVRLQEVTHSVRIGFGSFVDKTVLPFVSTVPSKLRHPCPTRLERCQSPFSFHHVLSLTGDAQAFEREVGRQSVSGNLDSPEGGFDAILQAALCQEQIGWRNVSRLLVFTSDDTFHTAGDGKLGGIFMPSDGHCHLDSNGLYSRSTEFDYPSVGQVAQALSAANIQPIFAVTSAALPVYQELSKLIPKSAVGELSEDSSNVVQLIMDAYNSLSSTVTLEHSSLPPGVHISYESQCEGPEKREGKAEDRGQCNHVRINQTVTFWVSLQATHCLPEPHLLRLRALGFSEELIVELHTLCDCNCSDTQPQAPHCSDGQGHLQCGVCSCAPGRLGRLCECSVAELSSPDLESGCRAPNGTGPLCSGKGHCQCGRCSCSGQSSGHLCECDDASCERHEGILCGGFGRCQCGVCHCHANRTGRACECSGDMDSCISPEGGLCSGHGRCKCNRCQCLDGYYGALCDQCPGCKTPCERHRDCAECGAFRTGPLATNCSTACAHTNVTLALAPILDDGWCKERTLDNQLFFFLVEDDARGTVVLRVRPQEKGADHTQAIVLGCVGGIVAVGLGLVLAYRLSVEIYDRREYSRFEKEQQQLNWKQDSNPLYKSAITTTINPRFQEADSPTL

[6] = Clearance in Sprague-Dawley rat plasma at 1 mg/kg, iv by cassette-dosing assay; type: ADME, organism-based; design: dose 1 mg/kg, route intravenous

T1 sequence (P05556 whole entry, one chain of several): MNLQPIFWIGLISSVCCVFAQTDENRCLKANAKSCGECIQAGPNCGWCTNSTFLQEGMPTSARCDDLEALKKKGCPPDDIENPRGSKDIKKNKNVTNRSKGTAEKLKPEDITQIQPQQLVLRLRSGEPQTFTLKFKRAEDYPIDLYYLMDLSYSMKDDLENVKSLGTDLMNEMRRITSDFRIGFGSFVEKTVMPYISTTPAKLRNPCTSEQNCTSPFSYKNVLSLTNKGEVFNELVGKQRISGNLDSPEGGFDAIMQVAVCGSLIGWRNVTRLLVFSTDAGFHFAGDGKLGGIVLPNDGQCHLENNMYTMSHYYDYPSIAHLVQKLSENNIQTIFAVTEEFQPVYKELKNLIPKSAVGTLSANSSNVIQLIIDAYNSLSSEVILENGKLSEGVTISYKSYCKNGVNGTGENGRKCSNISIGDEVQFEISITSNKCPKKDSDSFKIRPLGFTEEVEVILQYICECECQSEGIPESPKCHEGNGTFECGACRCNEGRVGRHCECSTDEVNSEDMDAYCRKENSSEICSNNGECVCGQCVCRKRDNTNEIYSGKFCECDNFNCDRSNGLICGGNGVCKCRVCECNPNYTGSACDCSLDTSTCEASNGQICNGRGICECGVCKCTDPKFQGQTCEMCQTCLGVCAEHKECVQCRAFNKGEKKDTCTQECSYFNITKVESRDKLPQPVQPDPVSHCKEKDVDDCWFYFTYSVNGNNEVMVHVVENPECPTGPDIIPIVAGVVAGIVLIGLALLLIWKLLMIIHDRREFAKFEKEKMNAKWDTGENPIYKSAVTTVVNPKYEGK

IC50 (Integrin alpha-4/beta-1 [1]) [nM]	SMILES	other results
322	O=C(O)C1C2CCC(C2)[C@@H]1NC(=O)[C@@H]1CCCN1S(=O)(=O)c1cc(Cl)cc(Cl)c1 (stereo partly drawn) [listing 1 of 2 here]	
2740	O=C(O)[C@H]1C2CCC(CC2)[C@@H]1NC(=O)[C@@H]1CCCN1S(=O)(=O)c1cc(Cl)cc(Cl)c1	
1490	O=C(O)C1C2CCC(C2)[C@H]1NC(=O)[C@@H]1CCCN1S(=O)(=O)c1cc(Cl)cc(Cl)c1 (stereo partly drawn) [listing 1 of 2 here]	
299	O=C(O)C1C2CCC(C2)[C@H]1NC(=O)[C@@H]1CCCN1S(=O)(=O)c1cc(Cl)cc(Cl)c1 (stereo partly drawn) [listing 2 of 2 here]	
95	O=C(O)C1C2CCC(C2)[C@@H]1NC(=O)[C@@H]1CCCN1S(=O)(=O)c1cc(Cl)cc(Cl)c1 (stereo partly drawn) [listing 2 of 2 here]	
54	O=C(O)[C@H]1C2CCC(C2)[C@@H]1NC(=O)[C@@H]1CCCN1S(=O)(=O)c1cc(Cl)cc(Cl)c1 (stereo partly drawn)	half-life [3]: 1.7 h; half-life [4]: 1.9 h; bioavailability [5]: 49%; IC50 (Integrin alpha-4/beta-7): 13000 nM; clearance [6]: 3.3 mL/min/kg
657	O=C(O)C1C2C=CC(C2)[C@@H]1NC(=O)[C@@H]1CCCN1S(=O)(=O)c1cc(Cl)cc(Cl)c1 (stereo partly drawn) [listing 1 of 2 here]	
25600	O=C(O)[C@H]1C2CCC(O2)[C@@H]1NC(=O)[C@@H]1CCCN1S(=O)(=O)c1cc(Cl)cc(Cl)c1 (stereo partly drawn)	
1600	O=C(O)[C@@H]1C2CCC(C2)[C@@H]1NC(=O)[C@@H]1CCCN1S(=O)(=O)c1cc(Cl)cc(Cl)c1 (stereo partly drawn)	
2160	O=C(O)C1C2C=CC(C2)[C@@H]1NC(=O)[C@@H]1CCCN1S(=O)(=O)c1cc(Cl)cc(Cl)c1 (stereo partly drawn) [listing 2 of 2 here]	

More lines, now with the values behind:

SMILES	IC50 (Integrin alpha-4/beta-1 [1]) [nM]	other results
CC(C)[C@@H](C(=O)NC1CCCCC1C(=O)O)N(C)S(=O)(=O)c1cc(Cl)cc(Cl)c1 (stereo partly drawn)	462	
O=C(O)[C@H]1CCCC[C@@H]1NC(=O)[C@@H]1CCCN1S(=O)(=O)c1cc(Cl)cc(Cl)c1	525	
O=C(O)Cc1cccc(NC(=O)[C@@H]2CCCN2S(=O)(=O)c2cc(Cl)cc(Cl)c2)c1		Activity (Integrin alpha-4/beta-1 [2]): 43%
O=C(O)c1cccc(NC(=O)[C@@H]2CCCN2S(=O)(=O)c2cc(Cl)cc(Cl)c2)c1		Activity (Integrin alpha-4/beta-1 [2]): 2%
O=C(CN(C1CCCCC1)S(=O)(=O)c1cc(Cl)cc(Cl)c1)NC1CCCCC1C(=O)O (stereo not drawn)		Activity (Integrin alpha-4/beta-1 [2]): inactive
O=C(O)c1ccccc1NC(=O)[C@@H]1CCCN1S(=O)(=O)c1cc(Cl)cc(Cl)c1		Activity (Integrin alpha-4/beta-1 [2]): 0%
O=C(O)[C@H]1CCCC[C@H]1NC(=O)[C@@H]1CCCN1S(=O)(=O)c1cc(Cl)cc(Cl)c1	9460	
O=C(O)Cc1ccccc1NC(=O)[C@@H]1CCCN1S(=O)(=O)c1cc(Cl)cc(Cl)c1		Activity (Integrin alpha-4/beta-1 [2]): 11%
